From ChEMBL document CHEMBL5241090, “A comprehensive overview of β-carbolines and its derivatives as anticancer agents” (Eur J Med Chem, 2021)
In brackets after ≈: the same amount, converted by molar mass.

Tests used:
MT4 = assay: Cytotoxicity against human MT4 cells; assay type: functional, cell-based
MOLT-4F = assay: Cytotoxicity against human MOLT-4F cells; assay type: functional, cell-based
L1210 = assay: Cytotoxicity against mouse L1210 cells; assay type: functional, cell-based
[1] = biological target: Serine/threonine-protein kinase haspin (Homo sapiens, UniProt Q8TF76); assay: Inhibition of HASPIN (unknown origin)
Sequence of Serine/threonine-protein kinase haspin (Q8TF76 whole entry): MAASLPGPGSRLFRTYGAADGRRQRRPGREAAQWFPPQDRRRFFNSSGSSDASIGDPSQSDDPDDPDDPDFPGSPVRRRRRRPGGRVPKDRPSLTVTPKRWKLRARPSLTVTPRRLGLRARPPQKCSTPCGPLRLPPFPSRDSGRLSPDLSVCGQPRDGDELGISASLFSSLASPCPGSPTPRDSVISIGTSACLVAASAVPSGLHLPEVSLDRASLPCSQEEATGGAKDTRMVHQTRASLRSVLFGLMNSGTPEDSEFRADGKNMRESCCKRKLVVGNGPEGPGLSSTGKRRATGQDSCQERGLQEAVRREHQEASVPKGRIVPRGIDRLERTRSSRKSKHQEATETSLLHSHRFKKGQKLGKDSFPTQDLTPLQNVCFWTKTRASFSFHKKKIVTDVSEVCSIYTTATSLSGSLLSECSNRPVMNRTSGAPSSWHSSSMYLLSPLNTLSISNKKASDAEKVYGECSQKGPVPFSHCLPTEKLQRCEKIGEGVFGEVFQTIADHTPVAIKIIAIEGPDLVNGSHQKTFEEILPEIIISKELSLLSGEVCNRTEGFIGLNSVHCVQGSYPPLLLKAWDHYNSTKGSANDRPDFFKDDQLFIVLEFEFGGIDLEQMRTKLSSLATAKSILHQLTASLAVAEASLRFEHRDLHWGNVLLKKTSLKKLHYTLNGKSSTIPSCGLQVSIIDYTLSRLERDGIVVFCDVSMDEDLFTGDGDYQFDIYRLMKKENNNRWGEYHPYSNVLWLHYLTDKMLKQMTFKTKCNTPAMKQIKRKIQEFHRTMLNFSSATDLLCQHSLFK

[2] = biological target: Cyclin-dependent kinase 2/cyclin A (Homo sapiens, UniProt P24941); assay: Inhibition of CDK2/Cyclin A (unknown origin); assay type: protein-complex assay
RAW264.7 = assay: Cytotoxicity against mouse RAW264.7 cells; assay type: functional, cell-based
THP-1 = assay: Cytotoxicity against human THP-1 cells; assay type: functional, cell-based
HCT-116 = assay: Cytotoxicity against human HCT-116 cells; assay type: functional, cell-based
MOLT-4 = assay: Cytotoxicity against human MOLT-4 cells; assay type: functional, cell-based
A549 = assay: Cytotoxicity against human A549 cells; assay type: functional, cell-based
HL-60 = assay: Cytotoxicity against human HL-60 cells; assay type: functional, cell-based; details: Homo sapiens, HL-60; read-out: IC50
NCI-H460 = assay: Cytotoxicity against human NCI-H460 cells; assay type: functional, cell-based
BT-474 = assay: Cytotoxicity against human BT-474 cells; assay type: functional, cell-based
[3] = biological target: Serine/threonine-protein kinase PLK1 (Homo sapiens, UniProt P53350); assay: Inhibition of PLK1 (unknown origin)
Sequence of Serine/threonine-protein kinase PLK1 (P53350 whole entry): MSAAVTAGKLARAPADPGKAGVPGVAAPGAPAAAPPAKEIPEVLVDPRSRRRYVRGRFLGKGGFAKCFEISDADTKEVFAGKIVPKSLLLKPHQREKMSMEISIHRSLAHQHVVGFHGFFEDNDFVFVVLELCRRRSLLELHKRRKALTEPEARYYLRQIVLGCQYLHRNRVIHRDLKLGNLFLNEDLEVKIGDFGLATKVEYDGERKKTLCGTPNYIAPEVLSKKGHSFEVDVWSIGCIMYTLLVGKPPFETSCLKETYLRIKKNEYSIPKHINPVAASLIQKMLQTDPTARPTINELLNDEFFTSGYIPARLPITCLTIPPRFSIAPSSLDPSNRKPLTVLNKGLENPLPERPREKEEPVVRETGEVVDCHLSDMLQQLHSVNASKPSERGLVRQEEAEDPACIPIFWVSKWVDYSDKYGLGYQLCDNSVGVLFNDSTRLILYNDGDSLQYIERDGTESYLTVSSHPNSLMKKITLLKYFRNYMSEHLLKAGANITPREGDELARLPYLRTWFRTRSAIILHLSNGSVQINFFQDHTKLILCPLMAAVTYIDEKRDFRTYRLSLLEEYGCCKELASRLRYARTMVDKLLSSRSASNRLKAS

Question: Which IC50 (MT4) does the source give for `COc1ccc2[nH]c3c(c2c1)CCN1OCSC[C@@H](N)C31` (some centres undefined) here?
Answer: 5 ng/mL (≈ 0.0164 µM)

Question: And the IC50 (MOLT-4F)?
Answer: 6.2 ng/mL (≈ 0.0203 µM)

Question: And the IC50 (L1210)?
Answer: 5 ng/mL (≈ 0.0164 µM)

Question: For `Cc1nccc2c1[nH]c1cc(O)ccc12`, which IC50 [1] is on record?
Answer: 770 nM

Question: `CCCC[n+]1ccc2c3ccccc3n(Cc3ccccc3)c2c1-c1ccccc1Cl` was tested. Which IC50 [2] did it give?
Answer: 27000 nM

Question: How did the IC50 (RAW264.7) turn out when `CN1CCN(C(=O)[C@H]2Cc3c([nH]c4ccccc34)CN2Cc2ccc3ccccc3c2Br)CC1` was run?
Answer: 18000 nM

Question: With `COc1ccc(-c2nc(C(=O)Nc3nc4ccc([N+](=O)[O-])cc4s3)cc3c2[nH]c2ccccc23)cc1` as the molecule, how does the IC50 (THP-1) read?
Answer: 1460 nM

Question: And the IC50 (HCT-116)?
Answer: 1460 nM

Question: And the IC50 (MOLT-4)?
Answer: 1460 nM

Question: And the IC50 (A549)?
Answer: 1460 nM

Question: And the IC50 (HL-60)?
Answer: 1460 nM

Question: And the IC50 (NCI-H460)?
Answer: 1460 nM

Question: What about the IC50 (BT-474) of the same molecule?
Answer: 1460 nM

Question: `COc1ccc2c3cc[n+](CCCc4ccccc4)c(C)c3n(Cc3cccc(Cl)c3)c2c1` was tested. Which IC50 [3] did it give?
Answer: 897 nM
